“And” between values parts separate entries of the source, which are not always exact repeats. Identical values can stand only once.
Key:
[1] = cited from earlier work
[2] = Specific surface area by B.E.T. nitrogen absorption analysis; format: physicochemical; details: isolated crystalline solid of the example, after drying or spray drying
Text: Specific surface area is defined in units of square meters per gram (m^2/g). It is usually measured by nitrogen absorption analysis. In this analysis, nitrogen is absorbed on the surface of the substance. The amount of the absorbed nitrogen (as measured during the absorption or the subsequent desorption process) is related to the surface area via a formula known as the B.E.T. formula.

Specific Surface Area [2] | Compound | solubility in chloroform ([1]; chloroform) | solubility in water ([1]; water)
– | O=C1C(O)=C([C@H]2CC[C@H](c3ccc(Cl)cc3)CC2)C(=O)c2ccccc21 [Atovaquone, trans-2-[4-(4-chlorophenyl)cyclohexyl]-3-hydroxy-1,4-naphthoquinone] | soluble | practically insoluble
0.54 m^2/g | O=C1C(O)=C([C@H]2CC[C@H](c3ccc(Cl)cc3)CC2)C(=O)c2ccccc21 [atovaquone Form I, trans-2-[4-(4-chlorophenyl)cyclohexyl]-3-hydroxy-1,4-naphthoquinone] | – | –
0.76 m^2/g | O=C1C(O)=C([C@H]2CC[C@H](c3ccc(Cl)cc3)CC2)C(=O)c2ccccc21 [atovaquone crystalline form A, trans-2-[4-(4-chlorophenyl)cyclohexyl]-3-hydroxy-1,4-naphthoquinone] | – | –
2.84 m^2/g and 3.12 m^2/g | O=C1C(O)=C([C@H]2CC[C@H](c3ccc(Cl)cc3)CC2)C(=O)c2ccccc21 [atovaquone crystalline form B, trans-2-[4-(4-chlorophenyl)cyclohexyl]-3-hydroxy-1,4-naphthoquinone] | – | –

From patent US20100152302A1, “NOVEL CRYSTALLINE FORMS OF ATOVAQUONE” (HETERO DRUGS LIMITED, priority 2007, published 2010)
